Values of other authors as cited in PMC8305651 (International Journal of Molecular Sciences, 2021).

Conditions: cited from earlier work

For O=c1cc(-c2ccc(O)c(O)c2)oc2cc(O)cc(O)c12 [luteolin], the bioavailability is listed as “low bioavailability”.
